# Test system: Normal human adipocytes
# Test: Assessment of lipid synthesis in adipocytes in suspension (anti-cellulitis efficacy test)
# Assay type: cell-based
# Conditions: radioactively labelled acetate (2-C14) into lipids, versus comparative sample
# Protocol: Normal human adipocytes are isolated starting from biopsies (plastic surgery). Immediately after receipt, the samples are incubated for 30 min at 37° C. in the presence of collagenase (supplied by Sigma). The suspension of adipocytes is then rinsed and diluted three-fold in the culture medium, The culture medium is formed, for example, from the following: • 1.87 mg/ml of bicarbonate (supplied by Life Technologies), • 25 IU/ml/25 μg/ml of penicillin/streptomycin (supplied by Life Technologies), • 2 mM of glutamine (supplied by Life Technologies), • 100% (vol./vol.) MEM (supplied by Merck Eurolab) and • 0.5% (wt./vol.) bovine albumin (supplied by Sigma).
# The adipocytes in suspension are incubated for 4 h at 37° C. in the presence of various concentrations of a compound of the formula I. […]
# After incubation for 4 h, the lipids are extracted by the procedure described by Bligh and Dyer, Can. J. Biochem. Physiol., 37, 922 (1959), evaporation is carried out under nitrogen, and the introduced radioactivity is quantified by liquid scintillation (reference liquid scintillation instrument LKB 1210, supplied by Rackbeta).
# Any interaction between the radioactively labelled acetate and a compound of the formula I is evaluated in order to confirm the specificity of the labelling by incubating the highest concentration of the compound of the formula I with acetate alone.
smiles,measurement,value
C/C=C/C/C=C/CCC(=O)[C@H]1O[C@H]1C(N)=O [Cerulin],inhibition of the incorporation of acetate,95%
